Assay results taken from US20050232896A1, “Cd137 as a proliferation factor for hematopoietic stem cells” (priority 2001, published 2005).

Tests used:
[1] = tested on: myeloid lineage, human CD34+ progenitors; experiment: CELISA lineage assay, myeloid lineage (CD11b); assay type: cell-based; settings: growth factors present
Procedure: (§1) The effects of CD137 on the different hematopoietic lineages were evaluated using a cell based immunoassay, which quantifies expression of lineage-specific markers (CELISA, BioWhittaker, Walkersville, Md., USA).
(§2) Progenitors for the myeloid and erythroid lineages were normal human CD34+ cells, which had been isolated from the bone marrow of healthy volunteers by positive selection using the “Direct CD34 Progenitor Kit” (Miltenyi, Bergisch Gladbach, Germany). Progenitors for the megakaryocyte lineage were normal human CD34+ cells, which had been isolated from the peripheral blood of healthy G-CSF-treated volunteers.
96-well polystyrene plates were precoated with four dilutions of CD137-Fc or Fc control protein at 4° C. overnight or with the dilution buffer PBS. […]
In this example, the influence of growth factor concentrations and potential additive or synergistic effects of these growth factors with CD137 were analysed in more detail. […]
Differentiation was assessed per CELISA (BioWhittaker), measuring the expression of the myeloid-specific protein CD11b. Proliferation was determined using the ViaLight system (BioWhittaker), which measures the amount of ATP in the culture. […]

[2] = tested on: erythroid lineage, human CD34+ progenitors; experiment: CELISA lineage assay, erythroid lineage (glycophorin A); assay type: cell-based; settings: growth factors present
Procedure: as §1, §2
(§3) 96-well polystyrene plates were precoated with four dilutions of CD137-Fc or Fc control protein at 4° C. overnight or with the dilution buffer PBS. The following additional controls were included in the experiment: no addition; Camptothecin, a cytotoxic compound, at 0.005 μM (condition 1) and at 0.5 μM (condition 2); stem Cell Factor (SCF) at a concentration of 125 ng/ml. […]

[3] = tested on: megakaryocyte lineage, human CD34+ progenitors; experiment: CELISA lineage assay, megakaryocyte lineage (CD41a); assay type: cell-based; settings: growth factors present
Procedure: as §1, §2, §3

Bone marrow cells = experiment: In vivo reconstitution after Alkeran, bone marrow composition; set-up: species or system NMRI mice; settings: Alkeran experiment, day 21, average of three mice
Procedure: (§4) In the next experiment NMRI mice were treated with Alkeran, a cytotoxic drug regularly used for human cancer therapy. Alkeran was given i.p. on days 1, 3 and 5. Mice received 100 μg of CD137-Fc immobilized on protein A or equivalent amounts of immobilized Fc control protein. Three mice were used per group. The relative composition of the bone marrow cells (Table 3) and the absolute number of cells in the peripheral blood (Table 4) were determined after 21 days.

[4] = tested on: cells in the peripheral blood; experiment: In vivo reconstitution after Alkeran, absolute cell numbers in peripheral blood; set-up: species or system NMRI mice; settings: after 21 days, average of three mice
Procedure: as §4

[5] = tested on: bone marrow cell population; experiment: In vivo reconstitution of the hematopoietic system, protein A damage, bone marrow composition; set-up: species or system NMRI mice; settings: day 21, average of three mice
Description: CD137 needs to be immobilized onto a carrier or crosslinked to be functional according to the invention. Protein A was chosen as a carrier for in vivo studies, as it has been effective in crosslinking CD137-Fc in the experiment described in Example 3. CD137-Fc or Fc control protein were immobilized on protein A and injected into NMRI mice. Besides immobilizing CD137-Fe or Fc, protein A has the additional effect of being toxic for cells of the hematopoietic system. This latter activity of protein A exerts a damaging effect on the hematopoietic system of mice as does chemotherapy.
Three mice per group were used. Each mouse received 100 μg of immobilized CD137-Fc or an equimolar amount of immobilized Fc or protein A alone. Mice were killed after 3 weeks and the bone marrow was isolated from the femurs and analysed (Table 2).

CC[C@@]1(O)C(=O)OCc2c1cc1n(c2=O)Cc2cc3ccccc3nc2-1 [Camptothecin]
growth inhibition, myeloid lineage ([1]; 0.005 uM): minimal growth inhibition
growth inhibition, myeloid lineage ([1]; 0.05 uM): inhibited growth to a greater extent
growth inhibition, erythroid lineage ([2]; 0.005 uM): minimal growth inhibition
growth inhibition, erythroid lineage ([2]; 0.05 uM): inhibited growth to a greater extent
growth inhibition, megakaryocyte lineage ([3]; 0.005 uM): minimal growth inhibition
growth inhibition, megakaryocyte lineage ([3]; 0.05 uM): inhibited growth to a greater extent

N[C@@H](Cc1ccc(N(CCCl)CCCl)cc1)C(=O)O [Alkeran]
R1 (Bone marrow cells): 60.21 Percentage of total cells
R3 (Bone marrow cells): 0.66 Percentage of total cells
R4 (Bone marrow cells): 2.28 Percentage of total cells
Total number of leukocytes in the peripheral blood [4]: 830 per μl
Total number of thrombocytes in the peripheral blood [4]: 581.000 per μl

Protein A: carrier for crosslinking CD137-Fc; toxic for cells of the hematopoietic system
R1 (91% erythroid) [5]: 69.18 Percentage of total cells
R3 (49% undifferentiated blasts, 25% lymphoblasts, 18% basophil erythroblasts) [5]: 1.81 Percentage of total cells
R4 (50% undifferentiated blasts, 30% myeloid mainly und. precursors, 20% erythroid) [5]: 1.97 Percentage of total cells
R5 (91% granulocytes) [5]: 1.12 Percentage of total cells
R6 (74% monocytes, 20% myeloid precursors) [5]: 0.63 Percentage of total cells
R5 (91% granulocytes) ([5]; listed as protein A): reduced drastically
R6 (74% monocytes, 20% myeloid precursors) ([5]; listed as protein A): reduced drastically
